# In ChEMBL document CHEMBL4007467, “Effects of 6-paradol, an unsaturated ketone from gingers, on cytochrome P450-mediated drug metabolism” (Bioorg Med Chem Lett, 2017):
# Legend:
# Format in all cases: ADME
# CYP2C9 [1] = molecular target: T1, CYP2C9 (Homo sapiens, UniProt P11712); assay: Inhibition of CYP2C9 in human liver microsomes assessed as enzyme-mediated metabolite formation at 0.1 uM using diclofenac as substrate preincubated for 20 mins followed by substrate addition measured after 30 mins in presence of NADPH by LC-MS/MS analysis relative to control; design: scale not given: the % may be the effect or the level left; settings: probe diclofenac, read-out: Activity
# CYP2C19 [2] = molecular target: T2, CYP2C19 (Homo sapiens, UniProt P33261); assay: Inhibition of CYP2C19 in human liver microsomes assessed as enzyme-mediated metabolite formation at 0.3 uM using (S)-mephenytoin as substrate preincubated for 20 mins followed by substrate addition measured after 30 mins in presence of NADPH by LC-MS/MS analysis relative to control; design: scale not given: the % may be the effect or the level left; settings: probe (S)-mephenytoin, read-out: Activity
# CYP2A6 [3] = molecular target: T3, CYP2A6 (Homo sapiens, UniProt P11509); assay: Inhibition of CYP2A6 in human liver microsomes assessed as enzyme-mediated metabolite formation at 10 uM using coumarin as substrate incubated for 5 mins followed by NADPH addition measured after 30 mins by LC-MS/MS analysis relative to control; design: scale not given: the % may be the effect or the level left; settings: probe coumarin, read-out: Activity
# T3 sequence (P11509 whole entry): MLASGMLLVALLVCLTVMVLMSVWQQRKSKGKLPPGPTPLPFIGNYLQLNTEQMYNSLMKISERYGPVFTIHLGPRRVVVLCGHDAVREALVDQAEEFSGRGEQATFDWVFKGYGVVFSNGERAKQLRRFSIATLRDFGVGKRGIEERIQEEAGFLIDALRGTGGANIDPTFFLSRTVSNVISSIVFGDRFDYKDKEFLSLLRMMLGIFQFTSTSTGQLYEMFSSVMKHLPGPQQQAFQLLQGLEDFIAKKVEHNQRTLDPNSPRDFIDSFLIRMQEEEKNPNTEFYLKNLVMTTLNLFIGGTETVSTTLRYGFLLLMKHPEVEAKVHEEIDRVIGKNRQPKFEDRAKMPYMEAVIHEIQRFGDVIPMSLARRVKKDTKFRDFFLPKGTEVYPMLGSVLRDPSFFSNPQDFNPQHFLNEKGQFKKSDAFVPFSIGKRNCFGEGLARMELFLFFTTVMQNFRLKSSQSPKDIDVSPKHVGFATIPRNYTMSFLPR
# CYP2D6 [4] = molecular target: T4, CYP2D6 (Homo sapiens, UniProt P10635); assay: Inhibition of CYP2D6 in human liver microsomes assessed as enzyme-mediated metabolite formation at 1 uM using dextromethorphan as substrate preincubated for 20 mins followed by substrate addition measured after 30 mins in presence of NADPH by LC-MS/MS analysis relative to control; design: scale not given: the % may be the effect or the level left; settings: probe dextromethorphan, read-out: Activity
# CYP3A4 [5] = molecular target: T5, CYP3A4 (Homo sapiens, UniProt P08684); assay: Inhibition of CYP3A4 in human liver microsomes assessed as enzyme-mediated metabolite formation at 0.1 uM using testosterone as substrate preincubated for 20 mins followed by substrate addition measured after 30 mins in presence of NADPH by LC-MS/MS analysis relative to control; design: scale not given: the % may be the effect or the level left; settings: probe testosterone, read-out: Activity
# Cytochrome P450 2D6 = Cytochrome P450 2D6 (Homo sapiens, UniProt P10635); assay: Inhibition of CYP2D6 in human liver microsomes assessed as enzyme-mediated metabolite formation using dextromethorphan as substrate incubated for 5 mins followed by NADPH addition measured after 30 mins by LC-MS/MS analysis
# CYP2C19 [6] = molecular target: T2, CYP2C19; assay: Inhibition of CYP2C19 in human liver microsomes assessed as enzyme-mediated metabolite formation at 30 uM using (S)-mephenytoin as substrate preincubated for 20 mins followed by substrate addition measured after 30 mins in presence of NADPH by LC-MS/MS analysis relative to control; design: scale not given: the % may be the effect or the level left; settings: probe (S)-mephenytoin, read-out: Activity
# CYP3A4 [7] = molecular target: T5, CYP3A4; assay: Inhibition of CYP3A4 in human liver microsomes assessed as enzyme-mediated metabolite formation at 0.3 uM using midazolam as substrate incubated for 5 mins followed by NADPH addition measured after 30 mins by LC-MS/MS analysis relative to control; design: scale not given: the % may be the effect or the level left; settings: probe midazolam, read-out: Activity
# CYP2D6 [8] = molecular target: T4, CYP2D6; assay: Inhibition of CYP2D6 in human liver microsomes assessed as enzyme-mediated metabolite formation at 1 uM using dextromethorphan as substrate incubated for 5 mins followed by NADPH addition measured after 30 mins by LC-MS/MS analysis relative to control; design: scale not given: the % may be the effect or the level left; settings: probe dextromethorphan, read-out: Activity
# CYP2D6 [9] = molecular target: T4, CYP2D6; assay: Inhibition of CYP2D6 in human liver microsomes assessed as enzyme-mediated metabolite formation at 0.1 uM using dextromethorphan as substrate incubated for 5 mins followed by NADPH addition measured after 30 mins by LC-MS/MS analysis relative to control; design: scale not given: the % may be the effect or the level left; settings: probe dextromethorphan, read-out: Activity
# CYP2A6 [10] = molecular target: T3, CYP2A6; assay: Inhibition of CYP2A6 in human liver microsomes assessed as enzyme-mediated metabolite formation at 30 uM using coumarin as substrate incubated for 5 mins followed by NADPH addition measured after 30 mins by LC-MS/MS analysis relative to control; design: scale not given: the % may be the effect or the level left; settings: probe coumarin, read-out: Activity
# CYP3A4 [11] = molecular target: T5, CYP3A4; assay: Inhibition of CYP3A4 in human liver microsomes assessed as enzyme-mediated metabolite formation at 3 uM using testosterone as substrate preincubated for 20 mins followed by substrate addition measured after 30 mins in presence of NADPH by LC-MS/MS analysis relative to control; design: scale not given: the % may be the effect or the level left; settings: probe testosterone, read-out: Activity
# CYP2C9 [12] = molecular target: T1, CYP2C9; assay: Inhibition of CYP2C9 in human liver microsomes assessed as enzyme-mediated metabolite formation at 30 uM using diclofenac as substrate preincubated for 20 mins followed by substrate addition measured after 30 mins in presence of NADPH by LC-MS/MS analysis relative to control; design: scale not given: the % may be the effect or the level left; settings: probe diclofenac, read-out: Activity
# CYP3A4 [13] = molecular target: T5, CYP3A4; assay: Inhibition of CYP3A4 in human liver microsomes assessed as enzyme-mediated metabolite formation at 30 uM using testosterone as substrate preincubated for 20 mins followed by substrate addition measured after 30 mins in presence of NADPH by LC-MS/MS analysis relative to control; design: scale not given: the % may be the effect or the level left; settings: probe testosterone, read-out: Activity
# CYP2C19 [14] = molecular target: T2, CYP2C19; assay: Inhibition of CYP2C19 in human liver microsomes assessed as enzyme-mediated metabolite formation at 10 uM using (S)-mephenytoin as substrate preincubated for 20 mins followed by substrate addition measured after 30 mins in presence of NADPH by LC-MS/MS analysis relative to control; design: scale not given: the % may be the effect or the level left; settings: probe (S)-mephenytoin, read-out: Activity
# CYP2C8 = molecular target: T6, CYP2C8 (Homo sapiens, UniProt P10632); assay: Inhibition of CYP2C8 in human liver microsomes assessed as enzyme-mediated metabolite formation at 10 uM using paclitaxel as substrate incubated for 5 mins followed by NADPH addition measured after 30 mins by LC-MS/MS analysis relative to control; design: scale not given: the % may be the effect or the level left; settings: probe paclitaxel, read-out: Activity
# T6 sequence (P10632 whole entry): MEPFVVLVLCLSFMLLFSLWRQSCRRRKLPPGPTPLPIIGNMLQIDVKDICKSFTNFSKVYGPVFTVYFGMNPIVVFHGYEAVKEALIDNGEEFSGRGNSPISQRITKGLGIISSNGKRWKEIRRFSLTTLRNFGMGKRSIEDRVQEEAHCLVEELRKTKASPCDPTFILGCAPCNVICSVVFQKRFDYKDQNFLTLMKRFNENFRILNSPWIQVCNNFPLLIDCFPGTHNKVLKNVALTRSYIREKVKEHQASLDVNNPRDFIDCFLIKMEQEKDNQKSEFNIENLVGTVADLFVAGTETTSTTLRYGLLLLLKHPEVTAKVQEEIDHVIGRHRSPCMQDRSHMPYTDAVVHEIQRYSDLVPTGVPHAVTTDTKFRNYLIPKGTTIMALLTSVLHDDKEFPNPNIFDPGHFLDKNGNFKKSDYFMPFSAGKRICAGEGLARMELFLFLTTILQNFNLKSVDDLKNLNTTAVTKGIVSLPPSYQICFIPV
# T2 sequence (P33261 whole entry): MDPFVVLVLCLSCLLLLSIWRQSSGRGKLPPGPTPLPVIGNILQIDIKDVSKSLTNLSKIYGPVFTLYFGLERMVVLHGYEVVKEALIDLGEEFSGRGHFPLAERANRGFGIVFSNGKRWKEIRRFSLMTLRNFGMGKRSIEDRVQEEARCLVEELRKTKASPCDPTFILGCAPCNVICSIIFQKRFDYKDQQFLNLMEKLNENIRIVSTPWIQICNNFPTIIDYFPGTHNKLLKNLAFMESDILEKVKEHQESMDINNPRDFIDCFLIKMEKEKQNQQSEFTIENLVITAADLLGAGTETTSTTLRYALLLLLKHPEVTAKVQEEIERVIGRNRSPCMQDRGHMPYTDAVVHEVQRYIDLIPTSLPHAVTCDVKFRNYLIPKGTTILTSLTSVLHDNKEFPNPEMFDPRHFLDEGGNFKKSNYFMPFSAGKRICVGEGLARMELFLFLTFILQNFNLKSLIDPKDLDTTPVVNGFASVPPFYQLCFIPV
# T5 sequence (P08684 whole entry): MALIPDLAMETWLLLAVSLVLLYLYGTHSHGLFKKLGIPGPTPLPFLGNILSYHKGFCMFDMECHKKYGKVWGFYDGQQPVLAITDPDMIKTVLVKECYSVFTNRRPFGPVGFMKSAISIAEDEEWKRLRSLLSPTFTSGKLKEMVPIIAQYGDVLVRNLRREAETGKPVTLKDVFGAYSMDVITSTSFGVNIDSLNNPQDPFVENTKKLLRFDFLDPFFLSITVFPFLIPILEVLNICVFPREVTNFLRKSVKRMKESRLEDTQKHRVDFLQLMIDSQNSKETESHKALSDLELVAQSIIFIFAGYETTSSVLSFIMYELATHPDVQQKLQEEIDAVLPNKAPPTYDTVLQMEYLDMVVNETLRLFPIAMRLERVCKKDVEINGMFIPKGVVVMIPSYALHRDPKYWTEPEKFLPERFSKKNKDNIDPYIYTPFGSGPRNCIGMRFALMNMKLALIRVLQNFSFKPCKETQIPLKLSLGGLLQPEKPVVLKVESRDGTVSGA
# T4 sequence (P10635 whole entry): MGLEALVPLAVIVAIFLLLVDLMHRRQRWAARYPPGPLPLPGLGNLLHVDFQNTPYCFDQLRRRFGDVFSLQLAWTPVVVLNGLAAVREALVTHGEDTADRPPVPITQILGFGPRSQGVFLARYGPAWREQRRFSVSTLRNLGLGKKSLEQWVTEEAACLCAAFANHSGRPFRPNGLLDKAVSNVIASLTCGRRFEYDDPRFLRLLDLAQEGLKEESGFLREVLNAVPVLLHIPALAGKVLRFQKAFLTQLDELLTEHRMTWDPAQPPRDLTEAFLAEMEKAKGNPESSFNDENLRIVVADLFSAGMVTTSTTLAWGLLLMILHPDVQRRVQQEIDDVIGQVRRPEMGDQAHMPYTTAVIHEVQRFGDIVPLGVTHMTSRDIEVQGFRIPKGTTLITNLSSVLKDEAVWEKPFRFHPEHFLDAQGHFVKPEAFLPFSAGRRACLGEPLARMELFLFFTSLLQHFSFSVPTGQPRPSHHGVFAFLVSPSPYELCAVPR
# T1 sequence (P11712 whole entry): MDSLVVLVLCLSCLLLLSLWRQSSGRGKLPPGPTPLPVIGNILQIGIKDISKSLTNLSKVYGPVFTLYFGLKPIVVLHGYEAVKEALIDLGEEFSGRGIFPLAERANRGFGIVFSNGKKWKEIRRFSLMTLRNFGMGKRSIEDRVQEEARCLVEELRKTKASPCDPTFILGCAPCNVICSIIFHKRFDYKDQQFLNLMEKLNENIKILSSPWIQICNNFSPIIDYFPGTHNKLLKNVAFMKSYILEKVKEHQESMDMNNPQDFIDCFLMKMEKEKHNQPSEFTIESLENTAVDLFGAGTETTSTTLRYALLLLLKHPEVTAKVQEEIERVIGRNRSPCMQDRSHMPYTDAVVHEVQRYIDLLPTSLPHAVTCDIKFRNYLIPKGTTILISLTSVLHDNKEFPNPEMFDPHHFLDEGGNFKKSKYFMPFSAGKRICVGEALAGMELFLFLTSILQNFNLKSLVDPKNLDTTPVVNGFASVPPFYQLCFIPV
# Cytochrome P450 2D6, sequence (P10635 whole entry): as the sequence (P10635 whole entry) above
compound,measurement,setting,value
CCCCCCCC(=O)CCc1ccc(O)c(OC)c1,"activity at 0.5 h, 0.1 µM",CYP2C9 [1],76%
same,"activity at 0.5 h, 0.3 µM",CYP2C19 [2],81.5%
same,"activity at 0.5 h, 10 µM",CYP2A6 [3],81.5%
same,"activity at 0.5 h, 1 µM",CYP2D6 [4],92.2%
same,"activity at 0.5 h, 0.1 µM",CYP3A4 [5],93.4%
same,IC50,Cytochrome P450 2D6,> 30 µM
same,"activity at 0.5 h, 30 µM",CYP2C19 [6],36.8%
same,"activity at 0.5 h, 0.3 µM",CYP3A4 [7],103%
same,"activity at 0.5 h, 1 µM",CYP2D6 [8],75.9%
same,"activity at 0.5 h, 0.1 µM",CYP2D6 [9],112%
same,"activity at 0.5 h, 30 µM",CYP2A6 [10],77.4%
same,"activity at 0.5 h, 3 µM",CYP3A4 [11],95.8%
same,"activity at 0.5 h, 30 µM",CYP2C9 [12],46.9%
same,"activity at 0.5 h, 30 µM",CYP3A4 [13],62.3%
same,"activity at 0.5 h, 10 µM",CYP2C19 [14],44.5%
same,"activity at 0.5 h, 10 µM",CYP2C8,45.5%
